In patent US5567716A, “Trans and cis traumatic acid salts having cicatrizant activity associated to bacteriostatic, antiviral, antibiotic or antifungal activity” (priority 1992, dated 1996):

Tests used:
[1] = tested on: man; settings: burns therapy; cited from earlier work
[2] = tested on: 3T3 fibroblasts; assay: Cellular proliferation of 3T3 fibroblasts, neutral red colorimetry (1.1a); type: cell-based, Mice
Procedure: Experiments on 3T3 fibroblasts
Mice 3T3 fibroblasts cultures sown at a 40.000/ml concentration on plates having 6 wells in a DMEM culture medium enriched with 10% calf serum are used. After 24 hours culture, the 90 prepared wells are divided in order to allow the analyses of the compounds of the invention, every compound to be tested being used respectively at a concentration of 0.1, 1 and 10 μg/ml by subsequent evaluations after 48 and 72 hours of incubation.
Hexadecyltrimethylammoniun (ETA) traumatare: solubilized in water and brought to the desired final concentrations of 0.1. 1 and 10 μg/ml by progressive dilutions;
Ethanolamine traumatate: solubilized in water and brought to the final concentrations of 0.1, 1 and 10 μg/ml by progressive dilutions;
Traumatic acid: neutralized with sodium hydroxyde and solubilized in water, then brought to the final concentrations of 0.1, 1 and 10 μg/ml by progressive dilutions with the culture medium.
The compounds are added to the cells after 24 hours culture. The cells number is measured by colorimetry with the neutral red intravital stain after 24, 48, 72 hours of incubation.

[3] = tested on: psoriatic patients or patients affected by acne, dermatitis seborrheic, neurodermatitis and itches; settings: trachoma, herpetic keratitis, verruca; cited from earlier work
[4] = tested on: experimental animal; settings: topical route; cited from earlier work
[5] = tested on: herpetic keratitis; settings: topic and systemic administration; cited from earlier work
[6] = tested on: Balb/C 3T3 fibroblasts; assay: Cell growth of Balb/C 3T3 fibroblasts, crystal violet colorimetry (1.1b); type: cell-based, Mouse; settings: for cell growth t2/t1: 48 h/24 h, control 76.776
Procedure: Mouse Balb/C 3T3 fibroblasts were grown in DMEM medium supplemented with penicillin (100 units/ml) and streptomycin (0.1 mg/ml). For experimental purposes, cells are routinely inoculated in […] diameter culture dishes (5000cells/dish) and cultured overnight.
The compounds to be tested are solubilized in DMEM+10%FCS and DMSO to obtain the final concentration of 10^-5 M, 10^-6 M e 10^-7 M in 0.05% DMSO.
The cells number is measured 4, 24 and 48 hours after seeding. The cell growth is evaluated as t2/t1 ratio (%).

## O=C(O)/C=C/CCCCCCCCC(=O)O [traumatic acid, 10-dodecendioic]
[1]
  reepithelialization times: reduces the reepithelialization times
[2]; 0.1 μg/ml, in words
  effect on cells proliferation: able to affect cells proliferation according to a not statistically significant trend
[2]; 1 μg/ml, in words, ETA salt > ethanolamine salt = traumatic acid
  effect on cellular proliferation: able to increase cellular proliferation
[2]; 24 hours of incubation, 0.1 (head: μg/ml), control 0.579 ± 0.021
  cells numeration (colorimetric, neutral red): 0.486 ± 0.029
[2]; 24 hours of incubation, 1.0 (head: μg/ml), control 0.579 ± 0.021
  cells numeration (colorimetric, neutral red): 0.510 ± 0.008
[2]; 24 hours of incubation, 10.0 (head: μg/ml), control 0.579 ± 0.021
  cells numeration (colorimetric, neutral red): 0.543 ± 0.019
[2]; 48 hours of incubation, 0.1 (head: μg/ml), control 1.334 ± 0.050
  cells numeration (colorimetric, neutral red): 1.497 ± 0.087
[2]; 48 hours of incubation, 1.0 (head: μg/ml), control 1.334 ± 0.050
  cells numeration (colorimetric, neutral red): 1.431 ± 0.047
[2]; 48 hours of incubation, 10.0 (head: μg/ml), control 1.334 ± 0.050, ** p < 0.01 significant reduction
  cells numeration (colorimetric, neutral red): 1.442 ± 0.060
[2]; 72 hours of incubation, 0.1 (head: μg/ml), control 2.360 ± 0.125
  cells numeration (colorimetric, neutral red): 2.492 ± 0.070
[2]; 72 hours of incubation, 1.0 (head: μg/ml), control 2.360 ± 0.125
  cells numeration (colorimetric, neutral red): 2.349 ± 0.125
[2]; 72 hours of incubation, 10.0 (head: μg/ml), control 2.360 ± 0.125, ** p < 0.01 significant reduction
  cells numeration (colorimetric, neutral red): 2.446 ± 0.128
[2]; side control experiment, ETA and ethanolamine salts > traumatic acid
  time necessary for the cells to reach the confluence: reduce the time normally necessary for the cells to reach the confluence
[3]
  clinical results: Positive clinical results
[4]
  reepithelializing and antiirritant action: reepithelializing and antiirritant action
[5]
  effect on herpetic keratitis model: effectiveness on an in vivo herpetic keratitis model both after topic and systemic administration
[6]; 4 h (t0), 10^-5M, control 0.300
  Cell density: 0.478
[6]; 4 h (t0), 10^-6M, control 0.300
  Cell density: 0.495
[6]; 4 h (t0), 10^-7M, control 0.300
  Cell density: 0.459
[6]; 24 h (t1), 10^-5M, control 0.481
  Cell density: 0.317
[6]; 24 h (t1), 10^-6M, control 0.481
  Cell density: 0.320
[6]; 24 h (t1), 10^-7M, control 0.481
  Cell density: 0.323
[6]; 48 h (t2), 10^-5M, control 0.849
  Cell density: 0.657
[6]; 48 h (t2), 10^-6M, control 0.849
  Cell density: 0.657
[6]; 48 h (t2), 10^-7M, control 0.849
  Cell density: 0.740
[6]; 10^-5M
  cell growth t2/t1: 112.273%
[6]; 10^-6M
  cell growth t2/t1: 95.638%
[6]; 10^-7M
  cell growth t2/t1: 135.554%
